One assay has as its target T1, FLT-3 tyrosine kinase (Homo sapiens, UniProt P36888).
T1 construct: purchased Upstate Cell Signalling Solutions, CA, USA 14-500
T1 sequence (P36888 27-993): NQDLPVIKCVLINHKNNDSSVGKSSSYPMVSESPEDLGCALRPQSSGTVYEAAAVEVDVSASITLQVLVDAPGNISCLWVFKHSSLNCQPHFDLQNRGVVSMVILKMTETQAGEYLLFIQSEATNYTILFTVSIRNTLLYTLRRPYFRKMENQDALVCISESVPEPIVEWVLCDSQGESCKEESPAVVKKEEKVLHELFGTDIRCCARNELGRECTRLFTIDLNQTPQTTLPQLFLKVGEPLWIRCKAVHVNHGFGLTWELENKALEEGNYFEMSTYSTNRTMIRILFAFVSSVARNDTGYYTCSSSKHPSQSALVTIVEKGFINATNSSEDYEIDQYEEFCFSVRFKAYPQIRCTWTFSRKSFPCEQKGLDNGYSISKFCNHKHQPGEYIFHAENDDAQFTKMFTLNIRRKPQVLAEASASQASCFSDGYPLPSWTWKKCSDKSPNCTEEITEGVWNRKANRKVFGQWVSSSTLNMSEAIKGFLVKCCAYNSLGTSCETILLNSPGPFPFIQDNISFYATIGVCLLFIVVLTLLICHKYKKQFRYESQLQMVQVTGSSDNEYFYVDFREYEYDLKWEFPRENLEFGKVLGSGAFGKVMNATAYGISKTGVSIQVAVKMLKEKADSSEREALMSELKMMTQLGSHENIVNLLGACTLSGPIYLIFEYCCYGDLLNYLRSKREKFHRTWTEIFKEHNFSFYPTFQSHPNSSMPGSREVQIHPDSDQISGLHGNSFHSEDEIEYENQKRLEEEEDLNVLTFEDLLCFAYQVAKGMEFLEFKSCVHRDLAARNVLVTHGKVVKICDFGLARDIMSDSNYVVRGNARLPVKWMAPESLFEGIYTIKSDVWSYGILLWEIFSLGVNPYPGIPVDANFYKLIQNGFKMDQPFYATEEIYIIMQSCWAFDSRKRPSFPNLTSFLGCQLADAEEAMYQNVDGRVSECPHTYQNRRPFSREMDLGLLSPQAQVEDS
Put plainly: Alphascreen protein tyrosine kinase assay, FLT-3. Format: biochemical. The following applies: read-out: Flt3.

The next assay deals with T2, PDGFR β tyrosine kinase (Homo sapiens, UniProt P09619).
T2 construct: purchased Upstate Cell Signalling Solutions, CA, USA 14-463
T2 sequence (P09619 33-1106): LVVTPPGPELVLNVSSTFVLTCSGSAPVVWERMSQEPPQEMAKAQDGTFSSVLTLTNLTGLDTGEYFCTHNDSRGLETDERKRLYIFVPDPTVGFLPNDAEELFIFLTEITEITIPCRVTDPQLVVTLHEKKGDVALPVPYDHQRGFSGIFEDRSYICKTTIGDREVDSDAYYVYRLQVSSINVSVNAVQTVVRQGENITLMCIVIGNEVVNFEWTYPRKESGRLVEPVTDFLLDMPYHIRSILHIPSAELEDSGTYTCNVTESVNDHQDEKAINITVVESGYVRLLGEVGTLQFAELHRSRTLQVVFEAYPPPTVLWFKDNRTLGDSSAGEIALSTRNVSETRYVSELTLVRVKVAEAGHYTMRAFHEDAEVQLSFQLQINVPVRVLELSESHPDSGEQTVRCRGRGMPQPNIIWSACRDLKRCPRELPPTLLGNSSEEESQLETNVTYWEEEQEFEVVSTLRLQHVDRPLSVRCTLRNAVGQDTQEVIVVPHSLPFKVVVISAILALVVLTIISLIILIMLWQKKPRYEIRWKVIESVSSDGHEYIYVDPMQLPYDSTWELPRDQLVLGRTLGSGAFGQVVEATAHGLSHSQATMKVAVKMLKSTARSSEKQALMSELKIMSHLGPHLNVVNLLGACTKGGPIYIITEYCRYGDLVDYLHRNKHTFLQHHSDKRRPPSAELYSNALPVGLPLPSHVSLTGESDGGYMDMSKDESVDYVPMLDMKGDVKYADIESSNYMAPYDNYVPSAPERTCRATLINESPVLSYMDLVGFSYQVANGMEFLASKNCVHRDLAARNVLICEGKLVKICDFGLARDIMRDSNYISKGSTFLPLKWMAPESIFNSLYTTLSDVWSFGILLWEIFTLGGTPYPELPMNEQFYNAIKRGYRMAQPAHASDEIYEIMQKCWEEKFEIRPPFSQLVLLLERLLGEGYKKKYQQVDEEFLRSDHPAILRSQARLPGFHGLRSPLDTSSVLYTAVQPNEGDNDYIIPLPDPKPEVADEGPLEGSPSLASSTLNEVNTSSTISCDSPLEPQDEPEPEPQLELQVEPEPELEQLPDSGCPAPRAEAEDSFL
Put plainly: Alphascreen protein tyrosine kinase assay, PDGFRβ. It counts as biochemical.

Assay [1] concerns the target T3, kinase domain of human c-kit (Homo sapiens, UniProt P10721).
T3 construct: from codon M552 to end; made in house; host or cells: Sf9 insect cells (baculovirus)
Briefly: Alphascreen protein tyrosine kinase assay, c-KIT. It counts as biochemical. On the procedure:
(§1) For screening purposes, compounds were diluted in 96 well plates at a concentration of 20 μM. Plates were warmed at 37° C. for 30 minutes before assay.
The kinase domain of human c-kit from codon M552 to end was cloned into the pDEST-20 expression vector (Invitrogen). The c-kit plasmid was then transformed into competent DH10Bac cells (Gibco), and the recombinant baculovirus produced prepared for transfection into Sf9 insect cells.
(§2) Baculovirus preparations from each of construct were infected into five liters of SF9 cells (Invitrogen) grown in SF-900 medium (Invitrogen) to a cell density of approximately 1−2×10^6 cells/ml. […] Cells were harvested and lysed. Tyrosine kinase domains were purified by affinity chromatography on a glutathione-agarose column (Scientifix Pty. Ltd. catalog #: GSH-200).
(§3) Kinase assays were performed in 384 well Optiplates (Packard) using an Alphascreen Protein Tyrosine Kinase kit. […] Alphascreen phosphotyrosine acceptor beads followed by streptavidin donor beads were added under subdued light. The Alphascreen plates were read on a Packard Fusion Alpha. Inhibitors were added to the assays thirty minutes prior to the addition of ATP. Inhibitors were added in aqueous DMSO, with DMSO concentrations never exceeding 1%.

For assay [2], the target named is T4, kinase domain of human CSF1-R (Homo sapiens, UniProt P07333).
T4 construct: from codon I553 to Q961; made in house; host or cells: Sf9 insect cells (baculovirus)
T4 sequence (P07333 553-961): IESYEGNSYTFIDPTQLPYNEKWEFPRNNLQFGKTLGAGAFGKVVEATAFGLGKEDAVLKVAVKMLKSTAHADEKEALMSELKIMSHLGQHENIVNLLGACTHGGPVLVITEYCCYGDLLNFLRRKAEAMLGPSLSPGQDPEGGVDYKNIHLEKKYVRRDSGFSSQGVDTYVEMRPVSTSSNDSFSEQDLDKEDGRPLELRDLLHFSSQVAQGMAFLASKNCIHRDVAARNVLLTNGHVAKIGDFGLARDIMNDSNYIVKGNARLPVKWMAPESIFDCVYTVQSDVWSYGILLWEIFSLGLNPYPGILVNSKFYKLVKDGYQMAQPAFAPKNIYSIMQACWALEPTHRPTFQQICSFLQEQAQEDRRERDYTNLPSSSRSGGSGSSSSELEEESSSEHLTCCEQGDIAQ
Put plainly: Alphascreen protein tyrosine kinase assay, CSF-1R. It counts as biochemical. On the procedure: as §1
The kinase domain of human CSF1-R from codon I553 to Q961 was cloned into the pDEST-20 expression vector (Invitrogen). The CSF1-R plasmid was then transformed into competent DH10Bac cells (Gibco), and the recombinant baculovirus produced prepared for transfection into Sf9 insect cells.
as §2, §3

A further assay concerns Baf3-WT. Briefly: Cellular assay (Alamar Blue), Baf3-WT with mouse IL-3. Format: cell-based. The following applies: mouse IL-3 at 5 ng/ml, 72 hr. On the procedure: (§4) Cells for the assays were prepared by harvesting cells from culture, and then diluting them in the appropriate growth medium to between 40,000 cell/mL and 600,000 cell/mL, depending on the cell line.
(§5) The compounds to be tested were added (104, 10× final concentration) to a flat bottomed 96-well plate. The cellular suspension (80 μL per well) was added, and one hour later the growth factor was added (human M-CSF at 20 ng/ml for mNFS-60, mouse IL-3 at 5 ng/ml for Baf3-WT). The plate was then incubated for 72 hr at 37° C., 5% CO2. Alamar Blue (10^4 per well) was added and the plates returned to the incubator for a further 4-8 hours.
(§6) The plates were then read using a fluorescence plate reader at excitation 544 nm and emission 590 nm.

In a further assay the test system is mNFS-60. Briefly: Cellular assay (Alamar Blue), mNFS-60 with human M-CSF. Format: cell-based. The following applies: human M-CSF at 20 ng/ml, 72 hr. On the procedure:
as §4, §5, §6

The next assay addresses T5, KDR protein kinase (Homo sapiens, UniProt P35968).
T5 construct: purchased Millipore 14-630M
Put plainly: Alphascreen protein tyrosine kinase assay, KDR. It counts as biochemical. On the procedure: as §1
FLT-3 and PDGFR β tyrosine kinase enzymes were purchased from Upstate Cell Signalling Solutions, CA, USA (flt-3 catalog #: 14-500 and PDGFR β catalog #: 14-463). KDR protein kinase enzyme was purchased from Millipore (catalogue #14-630M).
Kinase assays were performed in 384 well Optiplates (Packard) using an Alphascreen Protein Tyrosine Kinase kit. […] The biotinylated peptides Biotin-[…]-NH2 for c-KIT and PDGFRβ and Biotin-[…]-NH2 for CSF1-R and FLT-3 (final concentration 0.1-3 μM) were used as substrates. Alphascreen phosphotyrosine acceptor beads followed by streptavidin donor beads were added under subdued light. The Alphascreen plates were read on a Packard Fusion Alpha. Inhibitors were added to the assays thirty minutes prior to the addition of ATP. Inhibitors were added in aqueous DMSO, with DMSO concentrations never exceeding 1%.

T5 sequence (P35968 20-1356): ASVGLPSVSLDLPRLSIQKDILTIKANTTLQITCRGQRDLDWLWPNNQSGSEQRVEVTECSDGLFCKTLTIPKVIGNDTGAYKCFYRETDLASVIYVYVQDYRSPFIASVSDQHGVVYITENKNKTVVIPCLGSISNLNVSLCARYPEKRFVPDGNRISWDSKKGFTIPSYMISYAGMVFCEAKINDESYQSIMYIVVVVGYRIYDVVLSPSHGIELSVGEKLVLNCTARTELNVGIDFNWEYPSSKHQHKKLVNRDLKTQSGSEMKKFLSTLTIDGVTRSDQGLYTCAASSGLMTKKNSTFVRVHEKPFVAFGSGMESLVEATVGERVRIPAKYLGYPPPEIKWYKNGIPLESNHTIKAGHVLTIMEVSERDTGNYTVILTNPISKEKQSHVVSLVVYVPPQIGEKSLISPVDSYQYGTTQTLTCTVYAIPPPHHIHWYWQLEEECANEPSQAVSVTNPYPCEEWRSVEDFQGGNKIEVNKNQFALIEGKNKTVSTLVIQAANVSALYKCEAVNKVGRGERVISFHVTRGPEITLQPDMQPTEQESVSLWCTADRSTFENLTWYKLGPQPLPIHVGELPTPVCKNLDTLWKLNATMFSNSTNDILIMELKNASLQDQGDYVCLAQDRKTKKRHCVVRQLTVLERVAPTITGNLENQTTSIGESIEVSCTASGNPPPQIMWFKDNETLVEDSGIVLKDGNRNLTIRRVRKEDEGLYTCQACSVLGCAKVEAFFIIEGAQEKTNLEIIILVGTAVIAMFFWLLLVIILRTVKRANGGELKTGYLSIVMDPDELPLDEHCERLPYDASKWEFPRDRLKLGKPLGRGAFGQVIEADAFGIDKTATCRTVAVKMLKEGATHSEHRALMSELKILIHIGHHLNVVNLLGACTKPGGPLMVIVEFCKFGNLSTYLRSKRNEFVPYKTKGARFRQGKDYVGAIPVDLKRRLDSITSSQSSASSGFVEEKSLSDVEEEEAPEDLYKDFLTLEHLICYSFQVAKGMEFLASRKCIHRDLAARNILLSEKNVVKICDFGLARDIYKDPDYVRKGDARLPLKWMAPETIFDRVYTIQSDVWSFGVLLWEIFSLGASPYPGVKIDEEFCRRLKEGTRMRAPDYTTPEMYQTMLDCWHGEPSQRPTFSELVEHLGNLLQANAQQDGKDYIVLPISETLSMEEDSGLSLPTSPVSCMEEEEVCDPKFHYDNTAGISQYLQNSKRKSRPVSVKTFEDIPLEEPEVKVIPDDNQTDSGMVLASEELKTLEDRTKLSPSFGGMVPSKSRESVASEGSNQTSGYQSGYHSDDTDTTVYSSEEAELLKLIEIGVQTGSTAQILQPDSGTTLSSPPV
T3 sequence (P10721 552-976 limits assumed): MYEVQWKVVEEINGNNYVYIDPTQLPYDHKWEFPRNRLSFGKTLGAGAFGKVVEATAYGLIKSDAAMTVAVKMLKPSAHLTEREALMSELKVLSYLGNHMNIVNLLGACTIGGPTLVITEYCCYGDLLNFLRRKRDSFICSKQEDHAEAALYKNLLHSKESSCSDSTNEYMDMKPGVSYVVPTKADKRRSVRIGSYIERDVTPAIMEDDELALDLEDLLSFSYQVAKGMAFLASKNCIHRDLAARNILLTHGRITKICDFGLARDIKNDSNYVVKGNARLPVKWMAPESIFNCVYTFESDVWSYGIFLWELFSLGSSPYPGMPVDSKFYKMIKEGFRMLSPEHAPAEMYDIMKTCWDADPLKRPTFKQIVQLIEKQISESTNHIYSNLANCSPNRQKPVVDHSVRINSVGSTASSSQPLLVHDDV

Take `Cc1cc(C(=O)Nc2cccc([C@H](C)Nc3cncc(Cl)n3)c2)ccn1` [Compound 83]: the IC50 (at FLT-3 tyrosine kinase; at PDGFR β tyrosine kinase; in assay [1]) was less than 1000 nM throughout.

`COc1cc(-c2cncc(N[C@@H](C)c3cccc(NC(=O)c4cccc(C)c4)c3)n2)ccc1O` [Compound 76]: the IC50 on FLT-3 tyrosine kinase is less than 10000 nM; against PDGFR β tyrosine kinase, less than 1000 nM; in assay [1], less than 100 nM; in assay [2], less than 100 nM.

Take `COc1cc(-c2cncc(NC(C)c3cccc(NC(=O)c4cccnc4)c3)n2)ccc1O` (centres unmarked) [Compound 1]: the IC50 is greater than 10000 nM at FLT-3 tyrosine kinase, less than 1000 nM on PDGFR β tyrosine kinase and less than 100 nM in assay [1].

Consider `Cc1cccc(C(=O)Nc2cccc([C@H](C)Nc3cncc(-c4ccc(O)nc4)n3)c2)c1` [Compound 90], for which the IC50 on FLT-3 tyrosine kinase is less than 10000 nM; against PDGFR β tyrosine kinase it was less than 1000 nM; in assay [1], less than 1000 nM; in assay [2] it was less than 100 nM.

In the case of `Cc1ccnc(C(=O)Nc2cccc([C@H](C)Nc3cncc(Cl)n3)c2)c1` [Compound 82], the IC50 at FLT-3 tyrosine kinase is greater than 10000 nM; on PDGFR β tyrosine kinase, less than 1000 nM; in assay [1] it was less than 1000 nM; in assay [2], less than 100 nM.

For the compound `Cc1cncc(C(=O)Nc2cccc([C@H](C)Nc3cncc(Cl)n3)c2)c1` [Compound 42, N-(3-{(1S)-1-[(6-chloropyrazin-2-yl)amino]ethyl}phenyl)-5-methylnicotinamide], the figures for the IC50 (on FLT-3 tyrosine kinase; at PDGFR β tyrosine kinase; in assay [1]) were greater than 10000 nM, less than 1000 nM and less than 100 nM, respectively.

In the case of `COc1cc(-c2cncc(N[C@@H](C)c3cccc(NC(=O)c4ccc(C)nc4)c3)n2)ccc1N` [Compound 38], the IC50 at FLT-3 tyrosine kinase was less than 10000 nM; in assay [1] it was less than 100 nM; in assay [2], less than 100 nM.

For `COc1cccc(-c2cncc(N[C@@H](C)c3cccc(NC(=O)c4cccc(C)c4)c3)n2)c1` [Compound 100], the IC50 is greater than 10000 nM in the assay on Baf3-WT; less than 100 nM on PDGFR β tyrosine kinase; less than 1000 nM in assay [1]; less than 200 nM with mNFS-60; less than 100 nM in assay [2]; less than 100 nM at KDR protein kinase.

As for `COc1cc(-c2cncc(N[C@@H](C)c3cccc(NC(=O)c4cncc(C)c4)c3)n2)ccc1N` [Compound 29], the IC50 is less than 10000 nM on FLT-3 tyrosine kinase, less than 100 nM at PDGFR β tyrosine kinase, less than 100 nM in assay [1] and less than 100 nM in assay [2].

Regarding `COc1cc(-c2cncc(N[C@@H](C)c3cccc(NC(=O)c4cccnc4)c3)n2)ccc1N` [Compound 7], the IC50 on FLT-3 tyrosine kinase was less than 10000 nM; against PDGFR β tyrosine kinase, less than 100 nM; in assay [1], less than 100 nM; in assay [2], less than 100 nM.

For `Cc1ccc(C(=O)Nc2cccc([C@H](C)Nc3cncc(Cl)n3)c2)cc1` [Compound 93], the results for the IC50 (at FLT-3 tyrosine kinase; on PDGFR β tyrosine kinase; in assay [1]) were greater than 10000 nM, less than 1000 nM and less than 1000 nM, respectively.

For `COc1cccc(-c2cncc(N[C@@H](C)c3cccc(NC(=O)c4cncc(C)c4)c3)n2)c1` [Compound 24], the IC50 at FLT-3 tyrosine kinase is less than 10000 nM; with Baf3-WT, greater than 10000 nM; against PDGFR β tyrosine kinase it was less than 100 nM; in assay [1] it was less than 100 nM; in the assay on mNFS-60 it was less than 200 nM; in assay [2] it was less than 100 nM. Besides, the IC50 at KDR protein kinase was less than 100 nM.

On to `Cc1cccc(C(=O)Nc2cccc([C@H](C)Nc3cncc(-c4ccc(N5CCOCC5)cc4)n3)c2)c1` [Compound 81], for which the IC50 on FLT-3 tyrosine kinase is greater than 10000 nM; at PDGFR β tyrosine kinase, less than 1000 nM; in assay [1], less than 100 nM; in assay [2], less than 100 nM.

On to `Cc1cncc(C(=O)Nc2cccc([C@H](C)Nc3cncc(-c4ccc(N5CCOCC5)cc4)n3)c2)c1` [Compound 65], for which the IC50 with Baf3-WT is greater than 10000 nM; against PDGFR β tyrosine kinase, less than 100 nM; in assay [1], less than 100 nM; in the assay on mNFS-60, less than 200 nM; in assay [2], less than 100 nM; on KDR protein kinase it was less than 100 nM.

As for `Cc1cncc(C(=O)Nc2cccc([C@H](C)Nc3cncc(-c4ccc(NCCN5CCOCC5)nc4)n3)c2)c1` [Compound 80], the IC50 at FLT-3 tyrosine kinase was greater than 10000 nM; against PDGFR β tyrosine kinase it was less than 1000 nM; in assay [1], less than 100 nM; in assay [2], less than 100 nM.

Consider `Cc1cncc(C(=O)Nc2cccc([C@H](C)Nc3cncc(Br)c3)c2)c1` [Compound 62], for which the IC50 is greater than 10000 nM with Baf3-WT; less than 100 nM at PDGFR β tyrosine kinase; less than 100 nM in assay [1]; less than 1000 nM in the assay on mNFS-60; less than 100 nM against KDR protein kinase.

As to `Cc1cccc(C(=O)Nc2cccc([C@H](C)Nc3cncc(N4CCC(O)CC4)n3)c2)c1` [Compound 95], the IC50 on FLT-3 tyrosine kinase was greater than 10000 nM; against PDGFR β tyrosine kinase it was less than 1000 nM; in assay [1], less than 1000 nM; in assay [2], less than 100 nM.

Turning to `COc1cc(-c2cncc(N[C@@H](C)c3cccc(NC(=O)c4cncc(C)c4)c3)n2)ccc1O` [Compound 28], the IC50 is less than 10000 nM at FLT-3 tyrosine kinase, less than 100 nM against PDGFR β tyrosine kinase, less than 100 nM in assay [1] and less than 100 nM in assay [2].

With `C[C@H](Nc1cncc(Cl)n1)c1cccc(NC(=O)c2ccc(CN3CCN(C)CC3)cc2)c1` [Compound 91], the IC50 is greater than 10000 nM at FLT-3 tyrosine kinase, less than 1000 nM against PDGFR β tyrosine kinase, less than 1000 nM in assay [1] and less than 100 nM in assay [2].

As for `Cc1cncc(C(=O)Nc2cccc([C@H](C)Nc3cncc(-c4ccc(N5CCOCC5)nc4)n3)c2)c1` [Compound 79], the IC50 was greater than 10000 nM at FLT-3 tyrosine kinase, less than 1000 nM against PDGFR β tyrosine kinase, less than 100 nM in assay [1] and less than 100 nM in assay [2].

(Values after patent publication US9029386B2, “Pyridine derivatives useful as kinase inhibitors” (YM Biosciences Australia Pty Ltd, priority 2006, dated 2015).)
